IC50 data for 36 compounds are collected here from patent publication US11759455B2, “Substituted 1H-imidazo[4,5-b]pyridin-2(3H)-ones and their use as GLUN2B receptor modulators” (JANSSEN PHARMACEUTICA NV, priority 2016, dated 2023).

By IC50 is commonly meant the concentration that gives 50% inhibition.

The test deals with T1, human GluN1/GluN2B NMDA receptors (Homo sapiens, UniProt Q13224).
T1 construct: expressed in transfected cells
T1 sequence (Q13224 27-1484, other chains not shown): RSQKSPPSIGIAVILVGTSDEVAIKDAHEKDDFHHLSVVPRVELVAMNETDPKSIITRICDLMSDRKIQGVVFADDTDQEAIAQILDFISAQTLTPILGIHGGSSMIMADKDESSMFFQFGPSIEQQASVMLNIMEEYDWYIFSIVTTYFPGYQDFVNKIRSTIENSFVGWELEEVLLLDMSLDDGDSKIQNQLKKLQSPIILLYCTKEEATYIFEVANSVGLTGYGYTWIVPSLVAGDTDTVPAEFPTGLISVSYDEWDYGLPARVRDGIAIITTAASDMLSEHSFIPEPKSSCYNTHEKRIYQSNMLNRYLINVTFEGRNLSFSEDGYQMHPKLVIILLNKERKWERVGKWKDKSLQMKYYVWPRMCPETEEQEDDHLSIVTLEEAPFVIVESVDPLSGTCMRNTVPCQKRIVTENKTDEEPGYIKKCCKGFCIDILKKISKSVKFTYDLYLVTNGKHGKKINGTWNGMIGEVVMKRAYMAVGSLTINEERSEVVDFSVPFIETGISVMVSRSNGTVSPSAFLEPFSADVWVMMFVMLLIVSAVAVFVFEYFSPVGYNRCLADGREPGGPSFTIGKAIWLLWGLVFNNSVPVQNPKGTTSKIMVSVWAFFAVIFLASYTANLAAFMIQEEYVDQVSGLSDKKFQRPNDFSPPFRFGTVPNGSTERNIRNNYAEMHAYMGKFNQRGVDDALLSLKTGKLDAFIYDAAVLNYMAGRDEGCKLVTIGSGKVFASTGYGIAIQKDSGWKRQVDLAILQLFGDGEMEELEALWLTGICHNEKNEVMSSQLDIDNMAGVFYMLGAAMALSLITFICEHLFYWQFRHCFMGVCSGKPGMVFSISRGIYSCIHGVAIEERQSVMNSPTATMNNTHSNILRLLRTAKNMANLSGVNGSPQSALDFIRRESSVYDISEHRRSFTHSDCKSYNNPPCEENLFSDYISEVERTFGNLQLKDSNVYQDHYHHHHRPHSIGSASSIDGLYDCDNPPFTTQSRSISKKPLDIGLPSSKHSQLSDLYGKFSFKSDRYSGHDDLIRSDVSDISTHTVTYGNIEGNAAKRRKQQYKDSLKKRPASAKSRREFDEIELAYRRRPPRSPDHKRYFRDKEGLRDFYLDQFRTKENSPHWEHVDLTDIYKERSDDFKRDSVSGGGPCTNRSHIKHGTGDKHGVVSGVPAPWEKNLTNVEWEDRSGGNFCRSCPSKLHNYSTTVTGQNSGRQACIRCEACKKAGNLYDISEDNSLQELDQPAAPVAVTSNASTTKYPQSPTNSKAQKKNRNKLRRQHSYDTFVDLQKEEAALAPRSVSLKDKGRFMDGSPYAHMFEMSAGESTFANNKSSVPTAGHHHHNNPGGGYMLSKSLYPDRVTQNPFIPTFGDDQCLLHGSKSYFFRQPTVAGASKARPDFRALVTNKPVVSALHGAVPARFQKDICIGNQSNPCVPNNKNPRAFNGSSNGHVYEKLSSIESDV
In words: Cell-based calcium flux (FLIPR) assay on cloned human NR1/NR2B ion channels expressed in mammalian cells (standard and HTS buffer variants).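 Note: stable Tet-On inducible cell line, Ca2+ influx triggered by glutamate at about EC40 plus 10 µM glycine, fluorescent dye read-out over 5 min, normalized to control wells.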 To be noted: standard assay buffer (0.5 mM MgCl2 dye loading; 137 mM NaCl, 4 mM KCl assay buffer), human GluN1/GluN2B cells, read-out: NR2B IC50 (μM) standard assay. (In general: Calcium flux is commonly read through the fluorescence of an indicator in the cells.)
In the case of `O=c1[nH]c2ncc(-c3cc(F)cc(F)c3)cc2n1CCN1CCC(O)C1` (stereo not drawn) [Example 175, 6-(3,5-Difluorophenyl)-1-[2-(3-hydroxypyrrolidin-1-yl)ethyl]-3H-imidazo[4,5-b]pyridin-2-one], the IC50 amounted to 2.11 µM. For the compound `COC1CCN(CCn2c(=O)[nH]c3ncc(-c4cc(F)cc(F)c4)cc32)C1` (stereo not drawn) [Example 176, 6-(3,5-Difluorophenyl)-1-[2-(3-methoxypyrrolidin-1-yl)ethyl]-3H-imidazo[4,5-b]pyridin-2-one], the IC50 was determined as 4.37 µM. Take `Cc1cc(F)ccc1-c1cnc2[nH]c(=O)n(CCN3CCCC3)c2c1` [Example 177, 6-(4-Fluoro-2-methyl-phenyl)-1-(2-pyrrolidin-1-ylethyl)-3H-imidazo[4,5-b]pyridin-2-one]: the IC50 was 0.502 µM. As for `Cc1cccc(C)c1-c1cnc2[nH]c(=O)n(CCN3CCCC3)c2c1` [Example 178, 6-(2,6-Dimethylphenyl)-1-(2-pyrrolidin-1-ylethyl)-3H-imidazo[4,5-b]pyridin-2-one], the figure is 20.7 µM; as for `Cc1ccccc1-c1cnc2[nH]c(=O)n(CCN3CCCC3)c2c1` [Example 179, 6-(o-Tolyl)-1-(2-pyrrolidin-1-ylethyl)-3H-imidazo[4,5-b]pyridin-2-one], 0.707 µM. Regarding `O=c1[nH]c2ncc(-c3ccccc3)cc2n1CCN1CCCC1` [Example 180, 6-Phenyl-1-(2-pyrrolidin-1-ylethyl)-3H-imidazo[4,5-b]pyridin-2-one], the IC50 was 0.539 µM. For `Cc1c(-c2cnc3[nH]c(=O)n(CCN4CC(F)C4)c3c2)cccc1C(F)(F)F` [Example 181, 1-[2-(3-Fluoroazetidin-1-yl)ethyl]-6-[2-methyl-3-(trifluoromethyl)phenyl]-3H-imidazo[4,5-b]pyridin-2-one], the IC50 amounted to 9.35 µM. To `Cc1cccc(-c2cnc3[nH]c(=O)n(CCN4CC(F)C4)c3c2)c1C` [Example 182, 6-(2,3-Dimethylphenyl)-1-[2-(3-fluoroazetidin-1-yl)ethyl]-3H-imidazo[4,5-b]pyridin-2-one] belongs 1.74 µM; to `Cc1cc(C)cc(-c2cnc3[nH]c(=O)n(CCN4CC(F)C4)c3c2)c1` [Example 183, 6-(3,5-Dimethylphenyl)-1-[2-(3-fluoroazetidin-1-yl)ethyl]-3H-imidazo[4,5-b]pyridin-2-one], 2.08 µM. As to `Cc1c(F)ccc(-c2cnc3[nH]c(=O)n(CCN4CC(F)C4)c3c2)c1C` [Example 184, 1-[2-(3-Fluoroazetidin-1-yl)ethyl]-6-(4-fluoro-2,3-dimethyl-phenyl)-3H-imidazo[4,5-b]pyridin-2-one], the IC50 turned out to be 2.57 µM.

Take `Cc1ccc(C(F)(F)F)cc1-c1cnc2[nH]c(=O)n(CCN3CC(F)C3)c2c1` [Example 185, 1-[2-(3-Fluoroazetidin-1-yl)ethyl]-6-[2-methyl-5-(trifluoromethyl)phenyl]-3H-imidazo[4,5-b]pyridin-2-one]: the 50% inhibitory concentration (IC50) amounted to 2.13 µM. For `Cc1ccccc1-c1cnc2[nH]c(=O)n(CCN3CC(F)C3)c2c1` [Example 186, 1-[2-(3-Fluoroazetidin-1-yl)ethyl]-6-(o-tolyl)-3H-imidazo[4,5-b]pyridin-2-one], the IC50 was 1.34 µM. As for `Cc1cc(F)ccc1-c1cnc2[nH]c(=O)n(CCN3CC(F)C3)c2c1` [Example 187, 1-[2-(3-Fluoroazetidin-1-yl)ethyl]-6-(4-fluoro-2-methyl-phenyl)-3H-imidazo[4,5-b]pyridin-2-one], the figure is 1.19 µM; as for `O=c1[nH]c2ncc(-c3ccccc3)cc2n1CCN1CC(F)C1` [Example 188, 1-[2-(3-Fluoroazetidin-1-yl)ethyl]-6-phenyl-3H-imidazo[4,5-b]pyridin-2-one], 1.44 µM; as for `CCCNCCn1c(=O)[nH]c2ncc(-c3cc(F)cc(F)c3)cc21` [Example 189, 6-(3,5-Difluorophenyl)-1-[2-(propylamino)ethyl]-3H-imidazo[4,5-b]pyridin-2-one], 2.57 µM. As for `O=C(Cn1c(=O)[nH]c2ncc(-c3cccc(C(F)(F)F)c3)cc21)NC1CCC1` [Example 190, N-Cyclobutyl-2-[2-oxo-6-[3-(trifluoromethyl)phenyl]-3H-imidazo[4,5-b]pyridin-1-yl]acetamide], the figure is 0.07 µM; as for `COC1CN(C(=O)Cn2c(=O)[nH]c3ncc(-c4cccc(C(F)(F)F)c4)cc32)C1` [Example 191, 1-[2-(3-Methoxyazetidin-1-yl)-2-oxo-ethyl]-6-[3-(trifluoromethyl)phenyl]-3H-imidazo[4,5-b]pyridin-2-one], 0.132 µM; as for `O=C(Cn1c(=O)[nH]c2ncc(-c3cccc(C(F)(F)F)c3)cc21)NC1COC1` [Example 192, N-(Oxetan-3-yl)-2-[2-oxo-6-[3-(trifluoromethyl)phenyl]-3H-imidazo[4,5-b]pyridin-1-yl]acetamide], 0.052 µM. In the case of `CN1CCN(C(=O)Cn2c(=O)[nH]c3ncc(-c4cccc(C(F)(F)F)c4)cc32)CC1` [Example 193, 1-[2-(4-Methylpiperazin-1-yl)-2-oxo-ethyl]-6-[3-(trifluoromethyl)phenyl]-3H-imidazo[4,5-b]pyridin-2-one], the IC50 came to 0.587 µM. As for `O=C(Cn1c(=O)[nH]c2ncc(-c3cccc(C(F)(F)F)c3)cc21)N1CC(F)(F)C1` [Example 194, 1-[2-(3,3-Difluoroazetidin-1-yl)-2-oxo-ethyl]-6-[3-(trifluoromethyl)phenyl]-3H-imidazo[4,5-b]pyridin-2-one], the figure is 0.047 µM. On to `O=C(Cn1c(=O)[nH]c2ncc(-c3cccc(C(F)(F)F)c3)cc21)NC1CC(F)(F)C1` [Example 195, N-(3,3-Difluorocyclobutyl)-2-[2-oxo-6-[3-(trifluoromethyl)phenyl]-3H-imidazo[4,5-b]pyridin-1-yl]acetamide], for which the IC50 turned out to be 0.007 µM. For `Cn1c(=O)n(CC(=O)N2CCC(F)(F)C2)c2cc(-c3cccc(C(F)(F)F)c3)cnc21` [Example 196, 1-[2-(3,3-Difluoropyrrolidin-1-yl)-2-oxo-ethyl]-3-methyl-6-[3-(trifluoromethyl)phenyl]imidazo[4,5-b]pyridin-2-one], the IC50 worked out at 0.182 µM. Turning to `Cn1c(=O)n(CC(=O)N2CCCC2)c2cc(-c3cccc(C(F)(F)F)c3)cnc21` [Example 197, 3-Methyl-1-(2-oxo-2-pyrrolidin-1-yl-ethyl)-6-[3-(trifluoromethyl)phenyl]imidazo[4,5-b]pyridin-2-one], the IC50 is 0.205 µM. As for `Cn1c(=O)n(CC(=O)NC2(C)CC(F)(F)C2)c2cc(-c3cccc(C(F)(F)F)c3)cnc21` [Example 198, N-(3,3-Difluoro-1-methyl-cyclobutyl)-2-[3-methyl-2-oxo-6-[3-(trifluoromethyl)phenyl]imidazo[4,5-b]pyridin-1-yl]acetamide], the IC50 came to 5.01 µM.

Consider `Cn1c(=O)n(CC(=O)NC2(C)COC2)c2cc(-c3cccc(C(F)(F)F)c3)cnc21` [Example 199, N-(3-Methyloxetan-3-yl)-2-[3-methyl-2-oxo-6-[3-(trifluoromethyl)phenyl]imidazo[4,5-b]pyridin-1-yl]acetamide], for which the IC50 came to 2.66 µM. `Cn1c(=O)n(CC(=O)NC2CC(F)(F)C2)c2cc(-c3cccc(C(F)(F)F)c3)cnc21` [Example 200, N-(3,3-Difluorocyclobutyl)-2-[3-methyl-2-oxo-6-[3-(trifluoromethyl)phenyl]imidazo[4,5-b]pyridin-1-yl]acetamide]: the IC50 is 0.174 µM. For `O=C(Cn1c(=O)[nH]c2ncc(-c3cccc(C(F)(F)F)c3)cc21)N1CCCC1` [Example 201, 1-(2-Oxo-2-pyrrolidin-1-yl-ethyl)-6-[3-(trifluoromethyl)phenyl]-3H-imidazo[4,5-b]pyridin-2-one], the IC50 was 0.033 µM. As to `O=C(Cn1c(=O)[nH]c2ncc(-c3cccc(C(F)(F)F)c3)cc21)N1CCOCC1` [Example 204, 1-(2-Morpholino-2-oxo-ethyl)-6-[3-(trifluoromethyl)phenyl]-3H-imidazo[4,5-b]pyridin-2-one], the IC50 was found to be 0.037 µM. As to `O=C(Cn1c(=O)[nH]c2ncc(-c3cccc(C(F)(F)F)c3)cc21)NC1CCCC1` [Example 205, N-Cyclopentyl-2-[2-oxo-6-[3-(trifluoromethyl)phenyl]-3H-imidazo[4,5-b]pyridin-1-yl]acetamide], the concentration for half-maximal inhibition (IC50) was 0.523 µM. For the compound `O=C(Cn1c(=O)[nH]c2ncc(-c3cccc(C(F)(F)F)c3)cc21)N1CCCCC1` [Example 206, 1-[2-Oxo-2-(1-piperidyl)ethyl]-6-[3-(trifluoromethyl)phenyl]-3H-imidazo[4,5-b]pyridin-2-one], the IC50 amounted to 0.163 µM. For the compound `O=C(Cn1c(=O)[nH]c2ncc(-c3cccc(C(F)(F)F)c3)cc21)N1CC2(CNC2)C1` [Example 207, 1-[2-(2,6-Diazaspiro[3.3]heptan-6-yl)-2-oxo-ethyl]-6-[3-(trifluoromethyl)phenyl]-3H-imidazo[4,5-b]pyridin-2-one], the IC50 is 0.453 µM. Take `O=C(Cn1c(=O)[nH]c2ncc(-c3cccc(C(F)(F)F)c3)cc21)Nc1ccccn1` [Example 208, 2-[2-Oxo-6-[3-(trifluoromethyl)phenyl]-3H-imidazo[4,5-b]pyridin-1-yl]-N-(2-pyridyl)acetamide]: the IC50 is above 10 µM. With `CC1(NC(=O)Cn2c(=O)[nH]c3ncc(-c4cccc(C(F)(F)F)c4)cc32)CC(F)(F)C1` [Example 209, N-(3,3-Difluoro-1-methyl-cyclobutyl)-2-[2-oxo-6-[3-(trifluoromethyl)phenyl]-3H-imidazo[4,5-b]pyridin-1-yl]acetamide], the IC50 stood at 0.443 µM.

On to `COc1ccc(Cn2c(=O)[nH]c3ncc(-c4cccc(C(F)(F)F)c4)cc32)cn1` [Example 210, 1-[(6-Methoxy-3-pyridyl)methyl]-6-[3-(trifluoromethyl)phenyl]-3H-imidazo[4,5-b]pyridin-2-one], for which the IC50 was determined as 1.62 µM. To `O=c1[nH]c2ncc(-c3cccc(C(F)(F)F)c3)cc2n1CC1CC1` [Example 211, 1-(Cyclopropylmethyl)-6-[3-(trifluoromethyl)phenyl]-3H-imidazo[4,5-b]pyridin-2-one] belongs 0.115 µM; to `N#Cc1cccc(Cn2c(=O)[nH]c3ncc(-c4cccc(C(F)(F)F)c4)cc32)c1` [Example 212, 3-[[2-Oxo-6-[3-(trifluoromethyl)phenyl]-3H-imidazo[4,5-b]pyridin-1-yl]methyl]benzonitrile], 0.123 µM.
